Data as given in ChEMBL document CHEMBL1130564, “The dipeptide neurokinin-1 receptor antagonist S19752 is a potent and long-acting inhibitor of bronchoconstriction when administered by aerosol to the guinea pig in vivo” (Bioorg Med Chem Lett, 1997).

Columns and labels:
[1] = biological target: T1, Substance-K receptor (Homo sapiens, UniProt P21452); assay: Binding affinity for NK-2 receptor was determined in a radioligand binding assay using chinese hamster ovary cells.; format: cell-based
T1 sequence (P21452 whole entry): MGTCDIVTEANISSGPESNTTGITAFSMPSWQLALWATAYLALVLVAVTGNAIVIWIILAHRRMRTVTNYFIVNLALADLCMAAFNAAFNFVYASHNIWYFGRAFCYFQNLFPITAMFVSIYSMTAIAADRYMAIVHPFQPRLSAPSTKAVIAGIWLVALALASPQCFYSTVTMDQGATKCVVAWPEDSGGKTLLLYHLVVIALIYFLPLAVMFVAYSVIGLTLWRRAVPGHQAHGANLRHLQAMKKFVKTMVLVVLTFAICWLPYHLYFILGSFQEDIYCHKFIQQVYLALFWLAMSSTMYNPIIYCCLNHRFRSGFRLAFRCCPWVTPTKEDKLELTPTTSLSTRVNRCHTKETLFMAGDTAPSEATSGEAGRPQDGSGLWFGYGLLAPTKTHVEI

[2] = biological target: T2, Substance-K receptor (Oryctolagus cuniculus, UniProt P79218); assay: […] for NK-2 receptor was determined in vitro using isolated rabbit pulmonary artery.
T2 sequence (P79218 whole entry): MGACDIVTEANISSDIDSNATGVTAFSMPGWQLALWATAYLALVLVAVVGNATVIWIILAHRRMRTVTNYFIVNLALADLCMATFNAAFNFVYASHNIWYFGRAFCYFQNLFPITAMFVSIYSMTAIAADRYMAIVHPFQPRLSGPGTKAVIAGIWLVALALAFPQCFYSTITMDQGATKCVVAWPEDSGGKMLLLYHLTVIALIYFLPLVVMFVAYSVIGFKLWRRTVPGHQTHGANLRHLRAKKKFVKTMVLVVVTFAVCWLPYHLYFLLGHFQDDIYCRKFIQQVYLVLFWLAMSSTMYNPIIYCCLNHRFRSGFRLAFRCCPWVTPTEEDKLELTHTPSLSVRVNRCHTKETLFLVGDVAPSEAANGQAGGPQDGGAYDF

[3] = biological target: T3, Neuromedin-K receptor (Rattus norvegicus, UniProt P16177); assay: […] for NK-3 receptor was determined in vitro using isolated rat portal vein.
T3 sequence (P16177 whole entry): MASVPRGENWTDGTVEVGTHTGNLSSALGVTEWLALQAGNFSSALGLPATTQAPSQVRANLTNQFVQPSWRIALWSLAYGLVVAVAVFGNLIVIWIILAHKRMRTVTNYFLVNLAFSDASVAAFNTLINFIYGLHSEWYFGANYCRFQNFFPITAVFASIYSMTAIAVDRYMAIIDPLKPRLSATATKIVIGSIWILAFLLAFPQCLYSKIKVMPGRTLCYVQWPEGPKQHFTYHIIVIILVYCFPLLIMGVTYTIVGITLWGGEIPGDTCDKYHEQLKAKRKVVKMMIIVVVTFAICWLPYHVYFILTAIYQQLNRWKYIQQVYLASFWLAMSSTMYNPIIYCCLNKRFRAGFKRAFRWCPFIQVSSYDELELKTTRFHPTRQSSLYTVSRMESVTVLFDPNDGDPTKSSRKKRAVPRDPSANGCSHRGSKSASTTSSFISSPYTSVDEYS

[4] = organism: Cavia porcellus; assay: Inhibition of capsaicin-induced plasma extravasation in guinea pig bronchi; format: functional
[5] = test system: Cavia porcellus; assay: Tested for the ability to inhibit substance P induced bronchoconstriction in guinea pig and the dose that was effective even after 40 minutes of compound administration, was reported.; format: functional
[6] = test system: Cavia porcellus; assay: Tested for the ability to inhibit substance P induced bronchoconstriction, in guinea pig, after intravenous administration. The inhibitory dose at 3 minutes, was reported.; format: functional; details: 0.05 h, read-out: ID50 (the source's name)
[7] = biological target: Substance-P receptor (Homo sapiens, UniProt P25103); assay: Binding affinity for NK-1 receptor was determined in a radioligand binding assay using IM9 human lymphoblastoma cell line.
[8] = biological target: T2, Substance-K receptor; assay: Antagonistic potency for NK-2 receptor was determined in vitro, using isolated rabbit pulmonary artery.; format: functional; details: read-out: pA2 (converted)
[9] = biological target: T3, Neuromedin-K receptor; assay: Antagonistic potency for NK-3 receptor was determined in vitro, using isolated rat portal vein.; format: functional; details: read-out: pA2 (converted)

Chain of Substance-P receptor (P25103 whole entry): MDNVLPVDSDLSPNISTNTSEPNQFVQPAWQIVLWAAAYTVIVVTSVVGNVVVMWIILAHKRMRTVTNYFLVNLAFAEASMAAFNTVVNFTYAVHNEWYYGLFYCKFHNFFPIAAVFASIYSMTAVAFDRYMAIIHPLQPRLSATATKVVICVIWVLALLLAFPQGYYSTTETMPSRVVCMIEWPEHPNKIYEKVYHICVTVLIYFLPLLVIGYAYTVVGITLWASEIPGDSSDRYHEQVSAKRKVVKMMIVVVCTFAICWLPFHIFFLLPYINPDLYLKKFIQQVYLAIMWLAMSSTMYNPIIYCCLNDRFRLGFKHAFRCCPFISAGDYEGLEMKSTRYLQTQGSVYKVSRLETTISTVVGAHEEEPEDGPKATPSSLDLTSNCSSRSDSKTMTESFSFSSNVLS

Ki [1] [µM] | pA2 [2] | pA2 [3] | Ki [7] [µM] | Kb [8] [µM] | Kb [9] [µM] | SMILES | Effective dose [4] [mg/kg] | Effective dose [5] [mM] | ED50 [6] [µmol/kg] | ED50 ([4]; read-out: ID50 (the source's name)) [mg/kg]
2.4 | 5.6 | 5 |  |  |  | CN(Cc1ccccc1)C(=O)[C@H](Cc1ccc2ccccc2c1)NC(=O)[C@H]1C[C@H](O)CN1C(=O)c1cn(CCCCc2nnn[nH]2)c2ccccc12 |  |  |  | 
4.2 | 5.2 | 5.5 | 0.0024 |  |  | O=C(OCc1cc(C(F)(F)F)cc(C(F)(F)F)c1)[C@H](Cc1c[nH]c2ccccc12)NC(=O)[C@H]1C[C@H](O)CN1C(=O)c1cn(CCCCc2nnn[n-]2)c2ccccc12.[K+] | 0.026 | 0.5 | 0.05 | 
 |  |  |  | > 100 | > 100 | COc1ccccc1CN[C@H]1CCCN[C@H]1c1ccccc1 [CP-99994] |  |  |  | 0.014
 |  |  |  | 6.31 | 6.31 | CC(=O)N[C@@H](Cc1c[nH]c2ccccc12)C(=O)OCc1cc(C(F)(F)F)cc(C(F)(F)F)c1 [L-732138] |  |  |  | 
